From patent publication US6610665B1 (Smithkline Beecham Corporation, priority 1998, dated 2003)
Structures can show the parent of a compound that is named as a salt.

Columns and labels:
Assay type in all cases: cell-based
Settings in all cases: ratio to NECA
[1] = target: T1, adenosine 2a receptor (Homo sapiens, UniProt P29274); assay: Agonist activity, CHO cells transfected with human adenosine receptor and CRE-SPAP reporter; basal cAMP (A2a)
T1 construct: expressed in transfected cells; host or cells: CHO cells
T1 sequence (P29274 whole entry): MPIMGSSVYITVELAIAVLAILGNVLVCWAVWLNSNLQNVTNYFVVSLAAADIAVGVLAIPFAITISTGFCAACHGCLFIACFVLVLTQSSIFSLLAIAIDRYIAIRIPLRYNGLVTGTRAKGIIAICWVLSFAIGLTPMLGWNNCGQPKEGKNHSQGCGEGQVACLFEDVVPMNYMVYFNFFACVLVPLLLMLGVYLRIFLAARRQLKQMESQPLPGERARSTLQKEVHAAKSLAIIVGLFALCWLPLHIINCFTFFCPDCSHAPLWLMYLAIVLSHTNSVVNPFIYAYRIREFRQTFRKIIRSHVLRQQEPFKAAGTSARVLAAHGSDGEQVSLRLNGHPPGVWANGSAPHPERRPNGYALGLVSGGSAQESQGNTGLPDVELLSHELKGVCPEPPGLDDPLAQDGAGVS
Description: (§1) (1) Agonist activity against adenosine 2a, adenosine 1 and adenosine 3 receptor subtypes.
(§2) Agonist selectivity of compounds against other human adenosine receptors is determined using Chinese hamster ovary (CHO) cells transfected with the gene for the relevant human adenosine receptor following a method based on that of Castanon and Spevak, 1994. The CHO cells are also transfected with cyclic AMP response elements promoting the gene for secreted placental alkaline phosphatase (SPAP) (Wood, 1995). The effect of test compounds may be determined by their effects on basal levels of CAMP (A2a) or on forskolin-enhanced cAMP (A1 and A3) as reflected by changes in levels of SPAP. EC50 values for compounds may then be determined as a ratio to that of the non-selective agonist N-ethyl carboxamide adenosine (NECA).

[2] = target: T2, adenosine 3 receptor (Homo sapiens, UniProt P0DMS8); assay: Agonist activity, CHO cells transfected with human adenosine receptor and CRE-SPAP reporter; forskolin-enhanced cAMP (A3)
T2 construct: expressed in transfected cells; host or cells: CHO cells
T2 sequence (P0DMS8 1-318): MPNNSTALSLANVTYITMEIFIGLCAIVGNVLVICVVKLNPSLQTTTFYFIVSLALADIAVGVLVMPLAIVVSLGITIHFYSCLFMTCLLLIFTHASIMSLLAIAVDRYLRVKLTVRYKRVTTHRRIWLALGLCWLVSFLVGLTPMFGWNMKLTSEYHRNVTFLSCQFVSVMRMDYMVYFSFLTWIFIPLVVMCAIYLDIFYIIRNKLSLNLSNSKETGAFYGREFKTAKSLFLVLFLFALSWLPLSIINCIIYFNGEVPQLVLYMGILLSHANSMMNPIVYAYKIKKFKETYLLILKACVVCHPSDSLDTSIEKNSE
Description: as §1, §2

[3] = target: T3, adenosine 1 receptor (Homo sapiens, UniProt P30542); assay: Agonist activity, CHO cells transfected with human adenosine receptor and CRE-SPAP reporter; forskolin-enhanced cAMP (A1)
T3 construct: expressed in transfected cells; host or cells: CHO cells
T3 sequence (P30542 1-326): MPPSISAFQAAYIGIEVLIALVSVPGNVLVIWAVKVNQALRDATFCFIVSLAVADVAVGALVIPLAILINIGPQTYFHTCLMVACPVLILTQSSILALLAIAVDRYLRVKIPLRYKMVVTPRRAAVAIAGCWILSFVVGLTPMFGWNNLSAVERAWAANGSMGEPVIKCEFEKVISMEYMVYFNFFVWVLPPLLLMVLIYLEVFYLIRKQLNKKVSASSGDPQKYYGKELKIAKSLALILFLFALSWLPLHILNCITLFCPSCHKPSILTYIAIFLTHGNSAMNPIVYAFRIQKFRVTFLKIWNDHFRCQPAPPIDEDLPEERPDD
Description: as §1, §2

[4] = * data are minimum values since preparation was found, after testing, to contain an inactive impurity

| Structure (SMILES) | A2a, EC50 as a ratio of that of NECA ([1]; CHO cells, SPAP readout) | A3, EC50 as a ratio of that of NECA ([2]; CHO cells, SPAP readout) | A1, EC50 as a ratio of that of NECA ([3]; CHO cells, SPAP readout) | A2a, EC50 as a ratio of that of NECA [1, 4] | A3, EC50 as a ratio of that of NECA [2, 4] | A1, EC50 as a ratio of that of NECA [3, 4] |
| --- | --- | --- | --- | --- | --- | --- |
| CCC(CC)Nc1nc(NC(CO)C(C)C)nc2c1ncn2C1OC(c2nc(C)no2)C(O)C1O [Example 28, (2R,3R,4S,5S)-2-[6-(1-Ethyl-propylamino)-2-(1S-hydroxymethyl-2-methyl-propylamino)-purin-9-yl]-5-(3-methyl-[1,2,4]oxadiazol-5-yl)-tetrahydro-furan-3,4-diol formate] | – | – | – | 5.49 | >284 | >5263 |
| CCC(CC)Nc1nc(NCCN2CCOCC2)nc2c1ncn2[C@@H]1O[C@H](c2nc(C)no2)[C@@H](O)[C@H]1O.O=CO [Example 6, (2R,3R,4S,5S)-2-[6-(1-Ethyl-propylamino)-2-(2-morpholin-4-yl-ethylamino)-purin-9-yl]-5-(3-methyl-[1,2,4]oxadiazol-5-yl)-tetrahydro-furan-3,4-diol formate] | – | – | – | 41.35 | >642 | >4833 |
| CCCc1noc([C@H]2O[C@@H](n3cnc4c(NCC(c5ccccc5)c5ccccc5)nc(NCCc5cn(C)cn5)nc43)[C@H](O)[C@@H]2O)n1.O=CO [Example 33, (2R,3R,4S,5S)-2-{6-(2,2-Diphenyl-ethylamino)-2-[2-(1-methyl-1H-imidazol-4-yl)-ethylamino]-purin-9-yl}-5-(3-propyl-[1,2,4]oxadiazol-5-yl)-tetrahydro-furan-3,4-diol formate] | – | – | – | 8.35 | >259 | ≧815.9 |
| CCc1noc(C2OC(n3cnc4c(NCC(c5ccccc5)c5ccccc5)nc(NC(CO)C(C)C)nc43)C(O)C2O)n1 [Example 5, (2R,3R,4S,5S)-2-[6-(2,2-Diphenyl-ethylamino)-2-(1S-hydroxymethyl-2-methyl-propylamino)-purin-9-yl]-5-(3-ethyl-[1,2,4]oxadiazol-5-yl)-tetrahydro-furan-3,4-diol formate] | 6.12 | >309 | 1391.2 | – | – | – |
| CCc1noc([C@H]2O[C@@H](n3cnc4c(NC(CC)CC)nc(NCCc5ccccn5)nc43)[C@H](O)[C@@H]2O)n1.O=CO [Example 21, (2S,3S,4R,5R)-2-(3-Ethyl-[1,2,4]oxadiazol-5-yl)-5-[6-(1-ethyl-propylamino)-2-(2-pyridin-2-yl-ethylamino)-purin-9-yl]-tetrahydro-furan-3,4-diol formate] | – | – | – | 9.39 | >303 | >5090 |
| Cc1noc([C@H]2O[C@@H](n3cnc4c(NCC(c5ccccc5)c5ccccc5)nc(NCCc5cn(C)cn5)nc43)[C@H](O)[C@@H]2O)n1.O=C(O)C(F)(F)F.O=C(O)C(F)(F)F [Example 1] | 1.19 | >197 | 1306 | – | – | – |
| CCc1noc([C@H]2O[C@@H](n3cnc4c(NC(CC)CC)nc(NCCN5CCOCC5)nc43)[C@H](O)[C@@H]2O)n1.O=CO [Example 19, (2S,3S,4R,5R)-2-(3-Ethyl-[1,2,4]oxadiazol-5-yl)-5-[6-(1-ethyl-propylamino)-2-(2-morpholin-4-yl-ethylamino)-purin-9-yl]-tetrahydro-furan-3,4-diol formate] | – | – | – | 34.52 | >694 | >5860 |
| CCc1noc([C@H]2O[C@@H](n3cnc4c(NC(CC)CC)nc(NCCc5cn(C)cn5)nc43)[C@H](O)[C@@H]2O)n1.O=CO [Example 13, (2S,3S,4R,5R)-2-(3-Ethyl-[1,2,4]oxadiazol-5-yl)-5-(6-(1-ethyl-propylamino)-2-[2-(1-methyl-1H-imidazol-4-yl)-ethylamino]-purin-9-yl}tetrahydro-furan-3,4-diol formate] | 0.61 | >289 | >=4370 | – | – | – |
| CCc1noc(C2OC(n3cnc4c(NCC(c5ccccc5)c5ccccc5)nc(NC5CCNC5)nc43)C(O)C2O)n1 [Example 3, (2R,3R,4S,5S)-2-[6-(2,2-Diphenyl-ethylamino)-2-(pyrrolidin-3R-ylamino)-purin-9-yl]-5-(3-ethyl-[1,2,4]oxadiazol-5-yl)-tetrahydro-furan-3,4-diol formate] | – | – | – | 4.63 | >304 | 6719 |
| CCC(CC)Nc1nc(NC2CCNC2)nc2c1ncn2C1OC(c2nc(C)no2)C(O)C1O [Example 26, (2R,3R,4S,5S)-2-[6-(1-Ethyl-propylamino)-2-(pyrrolidin-3R-ylamino)-purin-9-yl]-5-(3-methyl-[1,2,4]oxadiazol-5-yl)-tetrahydro-furan-3,4-diol formate] | – | – | – | 5.18 | >284 | >5264 |
| CCc1noc([C@H]2O[C@@H](n3cnc4c(NCC(c5ccccc5)c5ccccc5)nc(NCCc5ccc(OC)c(OC)c5)nc43)[C@H](O)[C@@H]2O)n1.O=CO [Example 42, (2R,3R,4S,5S)-2-{2-(2-[3,4-Dimethoxy-phenyl]-ethylamino)-6-(2,2-diphenyl-ethylamino)-purin-9-yl}-5-(3-ethyl-[1,2,4]oxadiazol-5-yl)-tetrahydro-furan-3,4-diol formate] | 32.77 | >130 | >6064 | – | – | – |
| CCC(CC)Nc1nc(NCCc2cn(C)cn2)nc2c1ncn2[C@@H]1O[C@H](c2nc(C)no2)[C@@H](O)[C@H]1O.O=CO [Example 14, (2R,3R,4S,5S)-2-{6-(1-Ethyl-propylamino)-2-[2-(1-methyl-1H-imidazol-4-yl)-ethylamino]-purin-9-yl}-5-(3-methyl-[1,2,4]oxadiazol-5-yl)-tetrahydro-furan-3,4-diol formate] | 0.66 | >239 | >4587 | – | – | – |

Second part, led by results:

| A2a, EC50 as a ratio of that of NECA ([1]; CHO cells, SPAP readout) | A3, EC50 as a ratio of that of NECA ([2]; CHO cells, SPAP readout) | A1, EC50 as a ratio of that of NECA ([3]; CHO cells, SPAP readout) | Structure (SMILES) | A2a, EC50 as a ratio of that of NECA [1, 4] | A3, EC50 as a ratio of that of NECA [2, 4] | A1, EC50 as a ratio of that of NECA [3, 4] |
| --- | --- | --- | --- | --- | --- | --- |
| 20.13 | >194 | >9364 | CCC(CC)Nc1nc(NCCN2CCOCC2)nc2c1ncn2C1OC(c2nc(C3CC3)no2)C(O)C1O.O=CO.O=CO (stereo not drawn) [Example 36] | – | – | – |
| 30.21 | >130 | 4505.4 | CCc1noc(C2OC(n3cnc4c(NCC(c5ccccc5)c5ccccc5)nc(NCCN5CCCC5)nc43)C(O)C2O)n1.O=CO.O=CO (stereo not drawn) [Example 39] | – | – | – |
| 22.25 | >193 | 78.28 | CCC(CC)Nc1nc(NC2CCCC2)nc2c1ncn2[C@@H]1O[C@H](c2nc(C)no2)[C@@H](O)[C@H]1O.O=CO [Example 22] | – | – | – |
| 5.37 | >383 | >=3996 | CCc1noc(C2OC(n3cnc4c(NCC(c5ccccc5)c5ccccc5)nc(NC5CCC(N)CC5)nc43)C(O)C2O)n1.O=CO.O=CO [Example 4, (2R,3R,4S,5S)-2-[2-(trans-4-Amino-cyclohexylamino)-6-(2,2-diphenyl-ethylamino)-purin-9-yl]-5-(3-ethyl-[1,2,4]oxadiazol-5-yl)-tetrahydro-furan-3,4-diol diformate] | – | – | – |
| 4.40 | >165 | 16.84 | CCc1noc(C2OC(n3cnc4c(NCCC(C)(C)C)nc(NCCc5cn(C)cn5)nc43)C(O)C2O)n1.O=CO.O=CO [Example 48, (2R,3R,4S,5S)-2-{6-(3,3-Dimethyl-butylamino)-2-[2-(1-methyl-1H-imidazol-4-yl)-ethylamino]-purin-9-yl}-5-(3-ethyl-[1,2,4]oxadiazol-5-yl)-tetrahydro-furan-3,4-diol diformate] | – | – | – |
| 19.35 | >163 | 515.35 | CCc1noc([C@H]2O[C@@H](n3cnc4c(NC(CC)CC)nc(N[C@H]5CCC[C@@H]5O)nc43)[C@H](O)[C@@H]2O)n1.O=CO [Example 25, (2S,3S,4R,5R)-2-(3-Ethyl-[1,2,4]oxadiazol-5-yl)-5-[6-(1-ethyl-propylamino)-2-(2S-hydroxy-cyclopent-(S)-ylamino)-purin-9-yl]-tetrahydro-furan-3,4-diol formate] | – | – | – |
